Results published in US20210299204A1 (priority 2020, published 2021).

Assay: Adverse outcome after a Depo-Provera shot for endometrial treatment
Settings: inventor themself, one shot, 1987; attributed to the preservative in the drug

CC(=O)O[C@]1(C(C)=O)CC[C@H]2[C@@H]3C[C@H](C)C4=CC(=O)CC[C@]4(C)[C@H]3CC[C@@]21C [Depo-Provera]
adverse result of treatment: retinal atrophy
